The subject of series [1] is Transplanted liver cancer (H22). In words: anti-tumor test in transplanted liver cancer (H22) model. The class given is in vivo, nude mice. Conditions: 20 mg/kg. The method, then: (§1) Transplanted liver cancer (H22) model in nude mice were established for antitumor drug tests. The nude mice were randomly divided into six groups (10 animals for each group): blank control group, cyclophosphamide positive control group (CTX 20 mg·kg^−1), treatment groups (high, medium and low dosage, 0.20 mg·kg^−1, 0.10 mg·kg^−1 and 0.05 mg·kg^−1) and solution group (non-nanoparticle formulation). The negative control group received injection of physiological saline. After inoculation for four days and with the tumors grown to a certain volume, the mice were treated on the 5th, 7th, 9th, 11th and 13th day. On the 14th day, the mice were sacrificed by cervical dislocation and weighed, dissected to peel off the tumor tissue which was weighed by an electronic balance. The tumor-inhibition rates were calculated by using the following formula: […]
(§2) all the data were expressed as mean±standard deviation (i.e. x±SD); the mice were bled at caudal vein for routine white blood cell count.

A further series relates to white blood cell. In words: routine white blood cell count in H22 model mice. The class given is in vivo, nude mice. Conditions: 20 mg·kg^−1. The method, then: as §1, §2
The subject of series [2] is human laryngocarcinoma epithelial cells (Hep-2). In words: MTT inhibition of tumor cell growth, Hep-2. The class given is cell-based. Conditions: 0.1, 1, 10 and 100 μM in DMSO, different culture times (FIG. 7). From the text: Microplate Reader (Switzerland Sunrise); 3-(4,5-dimethylthiazol-2-yl)-2, 5-diphenyl-2H-tetrazolium bromide (MTT) (America Fluka); DMSO (Sigma); RPMI 1640 media (GIBCO); fetal bovine serum (FBS) (Tian Jin TBD Center for Biotechnology Development).
Studies were respectively carried out on the inhibition effect of cucurbitacin B HSA nanoparticle on the growth of tumor cells in vitro in human laryngocarcinoma epithelial cells (Hep-2), human hepatoma carcinoma cell (HepG-2), human adenocarcinoma of lung cell (A549), and inhibition effect of the same dosage of cucurbitacin B emulsion and liposomes in these cells were compared.
Cells were cultured in RPMI 1640 media containing 10% FBS in an incubator at 37° C. and 5% CO2, and passaged every 3 to 4 days. […] OD (optical density) value of each well was determined in the microplate reader (at 570 nm wavelength). Cell inhibition rate was calculated according to OD value, and the following formula was used: cell inhibition rate (IR)=[(mean OD value of control group−mean OD value of blank group)−(mean OD value of test groups−mean OD value of blank group)]/(mean OD value of control group−mean OD value of blank group). […]
Inhibition effects of various formulations of CuB (cucurbitacin B/HSA solution, CuB HSA nanoparticle, CuB liposome and CuB emulsion) on Hep-2, A549 and HepG-2 tumor cells were detected.

Consider 2 compounds from US20110064794A1, “Drug Delivery System, its Preparation Process and Use” (priority 2008, published 2011).

Consider `O=P1(N(CCCl)CCCl)NCCCO1` (stereo not shown) [CTX, cyclophosphamide], for which, in series [1], the “Body weight (g) begin” value is reported as 19.77 g, the “Body weight (g) end” value is 21.08 g and the “Number of mice (begin/end)” value was 10/9. Also, in series [1] (day 14), the “Tumor-inhibition rate (%)” value amounted to 55.3% and the “Weight of tumor (g) (x ± SD)” value was found to be 1.26 ± 0.63 g. The compound also yielded a leukocyte number with white blood cell of 3.11e+09 L⁻¹.
Regarding `CC(=O)OC(C)(C)/C=C/C(=O)[C@](C)(O)[C@H]1[C@H](O)C[C@@]2(C)[C@@H]3CC=C4[C@H](C[C@H](O)C(=O)C4(C)C)[C@]3(C)C(=O)C[C@]12C` [cucurbitacin B], the “inhibition effect on the growth of Hep-2 cells” value in series [2] is “enhanced along with the extended time and increased dose”.
